We go through three compounds from ChEMBL document CHEMBL1932988, “Synthesis, antimicrobial, anticancer evaluation and QSAR studies of 6-methyl-4-[1-(2-substituted-phenylamino-acetyl)-1H-indol-3-yl]-2-oxo/thioxo-1,2,3,4-tetrahydropyrimidine-5-carboxylic acid ethyl esters” (Eur J Med Chem, 2012).

Values after ≈ are worked out from the molar mass of the structure shown. Some results are limits rather than exact numbers.

In one data set the test system is Staphylococcus aureus. As to the kind of experiment: Antibacterial activity against Staphylococcus aureus MTCC 2901 after 24 hrs by tube dilution method.
Settings: not given
The class given is functional.
For the compound `CCOC(=O)C1=C(C)NC(=S)NC1c1cn(C(=O)CNc2ccccc2[N+](=O)[O-])c2ccccc12` (centres undefined), the “-logMIC” value came to 1.3.

Take `CCOC(=O)C1=C(C)NC(=S)NC1c1cn(C(=O)CNc2cccc([N+](=O)[O-])c2)c2ccccc12` (centres undefined): the “-logMIC” value is reported as 1.6.

Turning to `CCOC(=O)C1=C(C)NC(=O)NC1c1cn(C(=O)CNc2ccccc2N)c2ccccc12` (centres undefined), the “-logMIC” value came to 1.55.

Another data set deals with Bacillus subtilis. As to the kind of experiment: Antibacterial activity against Bacillus subtilis MTCC 2063 after 24 hrs by tube dilution method. The class given is functional.
Settings: not given
Turning to `CCOC(=O)C1=C(C)NC(=S)NC1c1cn(C(=O)CNc2ccccc2[N+](=O)[O-])c2ccccc12` (centres undefined), the “-logMIC” value turned out to be 1.6.

With `CCOC(=O)C1=C(C)NC(=S)NC1c1cn(C(=O)CNc2cccc([N+](=O)[O-])c2)c2ccccc12` (centres undefined), the “-logMIC” value is listed as 1.6.

As for `CCOC(=O)C1=C(C)NC(=O)NC1c1cn(C(=O)CNc2ccccc2N)c2ccccc12` (centres undefined), the “-logMIC” value was determined as 1.55.

The test system of a further data set is Escherichia coli. As to the kind of experiment: Antibacterial activity against Escherichia coli MTCC 1652 after 24 hrs by tube dilution method. It is filed as functional.
Settings: not given
On to `CCOC(=O)C1=C(C)NC(=S)NC1c1cn(C(=O)CNc2ccccc2[N+](=O)[O-])c2ccccc12` (centres undefined), for which the “-logMIC” value stood at 1.6.

In the case of `CCOC(=O)C1=C(C)NC(=S)NC1c1cn(C(=O)CNc2cccc([N+](=O)[O-])c2)c2ccccc12` (centres undefined), the “-logMIC” value is 1.9.

For `CCOC(=O)C1=C(C)NC(=O)NC1c1cn(C(=O)CNc2ccccc2N)c2ccccc12` (centres undefined), the “-logMIC” value is 1.85.

The subject of the next data set is Candida albicans. Briefly: Antifungal activity against Candida albicans MTCC 227 after 48 hrs by tube dilution method. It is filed as functional.
Settings: not given
For `CCOC(=O)C1=C(C)NC(=S)NC1c1cn(C(=O)CNc2ccccc2[N+](=O)[O-])c2ccccc12` (centres undefined), the “-logMIC” value was found to be 1.6.

With `CCOC(=O)C1=C(C)NC(=S)NC1c1cn(C(=O)CNc2cccc([N+](=O)[O-])c2)c2ccccc12` (centres undefined), the “-logMIC” value is on record as 1.6.

For `CCOC(=O)C1=C(C)NC(=O)NC1c1cn(C(=O)CNc2ccccc2N)c2ccccc12` (centres undefined), the “-logMIC” value worked out at 1.55.

A further data set concerns Aspergillus niger. Briefly: Antifungal activity against Aspergillus niger MTCC 8189 after 7 days by tube dilution method. It is filed as functional.
Settings: not given
With `CCOC(=O)C1=C(C)NC(=S)NC1c1cn(C(=O)CNc2ccccc2[N+](=O)[O-])c2ccccc12` (centres undefined), the “-logMIC” value came to 1.6.

In the case of `CCOC(=O)C1=C(C)NC(=S)NC1c1cn(C(=O)CNc2cccc([N+](=O)[O-])c2)c2ccccc12` (centres undefined), the “-logMIC” value was 1.6.

As for `CCOC(=O)C1=C(C)NC(=O)NC1c1cn(C(=O)CNc2ccccc2N)c2ccccc12` (centres undefined), the “-logMIC” value came to 1.55.

The test system of a further data set is Staphylococcus aureus. Briefly: Antibacterial activity against Staphylococcus aureus MTCC 2901 after 24 hrs followed by subculturing.
Settings: not given
It is filed as functional.
Take `CCOC(=O)C1=C(C)NC(=S)NC1c1cn(C(=O)CNc2ccccc2[N+](=O)[O-])c2ccccc12` (centres undefined): the MBC is recorded as over 0.1 uM/ml.

In the case of `CCOC(=O)C1=C(C)NC(=S)NC1c1cn(C(=O)CNc2cccc([N+](=O)[O-])c2)c2ccccc12` (centres undefined), the MBC is over 0.1 uM/ml.

On to `CCOC(=O)C1=C(C)NC(=O)NC1c1cn(C(=O)CNc2ccccc2N)c2ccccc12` (centres undefined), for which the MBC is over 0.11 uM/ml.

Another data set deals with Bacillus subtilis. Briefly: Antibacterial activity against Bacillus subtilis MTCC 2063 after 24 hrs by tube dilution method hrs followed by subculturing. The class given is functional.
Settings: not given
In turn, `CCOC(=O)C1=C(C)NC(=S)NC1c1cn(C(=O)CNc2ccccc2[N+](=O)[O-])c2ccccc12` (centres undefined) came in with an MBC of over 0.1 uM/ml.

The compound `CCOC(=O)C1=C(C)NC(=S)NC1c1cn(C(=O)CNc2cccc([N+](=O)[O-])c2)c2ccccc12` (centres undefined) registered an MBC of over 0.1 uM/ml.

For the compound `CCOC(=O)C1=C(C)NC(=O)NC1c1cn(C(=O)CNc2ccccc2N)c2ccccc12` (centres undefined), the MBC was over 0.11 uM/ml.

The subject of the next data set is Escherichia coli. As to the kind of experiment: Antibacterial activity against Escherichia coli MTCC 1652 after 24 hrs by tube dilution method hrs followed by subculturing. The class given is functional.
Settings: not given
Compound `CCOC(=O)C1=C(C)NC(=S)NC1c1cn(C(=O)CNc2ccccc2[N+](=O)[O-])c2ccccc12` (centres undefined) had an MBC of over 0.1 uM/ml.

`CCOC(=O)C1=C(C)NC(=S)NC1c1cn(C(=O)CNc2cccc([N+](=O)[O-])c2)c2ccccc12` (centres undefined) registered an MBC of 0.1 uM/ml.

The compound `CCOC(=O)C1=C(C)NC(=O)NC1c1cn(C(=O)CNc2ccccc2N)c2ccccc12` (centres undefined) had an MBC of 0.11 uM/ml.

The next data set deals with Candida albicans. As to the kind of experiment: Antifungal activity against Candida albicans MTCC 227 after 48 hrs by tube dilution method hrs followed by subculturing. It is filed as functional.
Settings: not given
As for `CCOC(=O)C1=C(C)NC(=S)NC1c1cn(C(=O)CNc2ccccc2[N+](=O)[O-])c2ccccc12` (centres undefined), the MFC is recorded as over 0.1 uM/ml.

Compound `CCOC(=O)C1=C(C)NC(=S)NC1c1cn(C(=O)CNc2cccc([N+](=O)[O-])c2)c2ccccc12` (centres undefined) had an MFC of over 0.1 uM/ml.

`CCOC(=O)C1=C(C)NC(=O)NC1c1cn(C(=O)CNc2ccccc2N)c2ccccc12` (centres undefined) returned an MFC of over 0.11 uM/ml.

Another data set has as its system Aspergillus niger. Briefly: Antifungal activity against Aspergillus niger MTCC 8189 after 7 days by tube dilution method hrs followed by subculturing. It is filed as functional.
Settings: not given
`CCOC(=O)C1=C(C)NC(=S)NC1c1cn(C(=O)CNc2ccccc2[N+](=O)[O-])c2ccccc12` (centres undefined) yielded an MFC of over 0.1 uM/ml.

Turning to `CCOC(=O)C1=C(C)NC(=S)NC1c1cn(C(=O)CNc2cccc([N+](=O)[O-])c2)c2ccccc12` (centres undefined), the MFC is on record as over 0.1 uM/ml.

As for `CCOC(=O)C1=C(C)NC(=O)NC1c1cn(C(=O)CNc2ccccc2N)c2ccccc12` (centres undefined), the MFC was over 0.11 uM/ml.

For another data set, the system named is Staphylococcus aureus. Briefly: Ratio of MIC to MBC for Staphylococcus aureus MTCC 2901. It is filed as functional.
Settings: not given
Regarding `CCOC(=O)C1=C(C)NC(=S)NC1c1cn(C(=O)CNc2ccccc2[N+](=O)[O-])c2ccccc12` (centres undefined), the Ratio is given as 3.

In the case of `CCOC(=O)C1=C(C)NC(=S)NC1c1cn(C(=O)CNc2cccc([N+](=O)[O-])c2)c2ccccc12` (centres undefined), the Ratio amounted to 3.

As to `CCOC(=O)C1=C(C)NC(=O)NC1c1cn(C(=O)CNc2ccccc2N)c2ccccc12` (centres undefined), the Ratio was found to be 3.

The test system of another data set is Bacillus subtilis. Briefly: Ratio of MIC to MBC for Bacillus subtilis MTCC 2063. The class given is functional.
Settings: not given
In the case of `CCOC(=O)C1=C(C)NC(=S)NC1c1cn(C(=O)CNc2ccccc2[N+](=O)[O-])c2ccccc12` (centres undefined), the Ratio is recorded as 3.

With `CCOC(=O)C1=C(C)NC(=S)NC1c1cn(C(=O)CNc2cccc([N+](=O)[O-])c2)c2ccccc12` (centres undefined), the Ratio stood at 3.

In the case of `CCOC(=O)C1=C(C)NC(=O)NC1c1cn(C(=O)CNc2ccccc2N)c2ccccc12` (centres undefined), the Ratio turned out to be 3.

The test system of a further data set is Escherichia coli. Briefly: Ratio of MIC to MBC for Escherichia coli MTCC 1652. It is filed as functional.
Settings: not given
Consider `CCOC(=O)C1=C(C)NC(=S)NC1c1cn(C(=O)CNc2ccccc2[N+](=O)[O-])c2ccccc12` (centres undefined), for which the Ratio is recorded as 3.

Regarding `CCOC(=O)C1=C(C)NC(=S)NC1c1cn(C(=O)CNc2cccc([N+](=O)[O-])c2)c2ccccc12` (centres undefined), the Ratio was found to be 3.

For `CCOC(=O)C1=C(C)NC(=O)NC1c1cn(C(=O)CNc2ccccc2N)c2ccccc12` (centres undefined), the Ratio came to 3.

The subject of a further data set is Candida albicans. Briefly: Ratio of MIC to MFC for Candida albicans MTCC 227. It is filed as functional.
Settings: not given
In the case of `CCOC(=O)C1=C(C)NC(=S)NC1c1cn(C(=O)CNc2ccccc2[N+](=O)[O-])c2ccccc12` (centres undefined), the Ratio is reported as 3.

As to `CCOC(=O)C1=C(C)NC(=S)NC1c1cn(C(=O)CNc2cccc([N+](=O)[O-])c2)c2ccccc12` (centres undefined), the Ratio was 3.

`CCOC(=O)C1=C(C)NC(=O)NC1c1cn(C(=O)CNc2ccccc2N)c2ccccc12` (centres undefined): the Ratio stood at 3.

In the next data set the test system is Aspergillus niger. As to the kind of experiment: Ratio of MIC to MFC for Aspergillus niger MTCC 8189.
Settings: not given
It is filed as functional.
With `CCOC(=O)C1=C(C)NC(=S)NC1c1cn(C(=O)CNc2ccccc2[N+](=O)[O-])c2ccccc12` (centres undefined), the Ratio stood at 3.

Consider `CCOC(=O)C1=C(C)NC(=S)NC1c1cn(C(=O)CNc2cccc([N+](=O)[O-])c2)c2ccccc12` (centres undefined), for which the Ratio is 3.

Turning to `CCOC(=O)C1=C(C)NC(=O)NC1c1cn(C(=O)CNc2ccccc2N)c2ccccc12` (centres undefined), the Ratio worked out at 3.

System in a further data set: not listed separately
As to the kind of experiment: Partition coefficient, log P of the compound. It is filed as physicochemical. The conditions noted are these: octanol/water.
The term logP denotes the decadic logarithm of the partition coefficient of the neutral form, usually between octanol and water. High values mean a more lipophilic compound, low ones a more hydrophilic compound. In turn, `CCOC(=O)C1=C(C)NC(=S)NC1c1cn(C(=O)CNc2ccccc2[N+](=O)[O-])c2ccccc12` (centres undefined) showed a logP of 2.88.

In turn, `CCOC(=O)C1=C(C)NC(=S)NC1c1cn(C(=O)CNc2cccc([N+](=O)[O-])c2)c2ccccc12` (centres undefined) displayed a log partition coefficient (logP) of 2.88.

The compound `CCOC(=O)C1=C(C)NC(=O)NC1c1cn(C(=O)CNc2ccccc2N)c2ccccc12` (centres undefined) displayed a lipophilicity (logP) of 0.74.

For the next data set, the system named is MCF7. Briefly: cells. The settings on record: Homo sapiens, MCF7, 72 h.
Description: Cytotoxicity against human MCF7 cells after 72 hrs by MTT assay
Broadly, the IC50 is the concentration needed to halve the response being measured. Low readings indicate higher potency, high ones lower potency. Compound `CCOC(=O)C1=C(C)NC(=S)NC1c1cn(C(=O)CNc2ccccc2[N+](=O)[O-])c2ccccc12` (centres undefined) had an IC50 of 550 µg/mL (≈ 1110 µM).

`CCOC(=O)C1=C(C)NC(=S)NC1c1cn(C(=O)CNc2cccc([N+](=O)[O-])c2)c2ccccc12` (centres undefined) had an IC50 of over 1000 µg/mL.

`CCOC(=O)C1=C(C)NC(=O)NC1c1cn(C(=O)CNc2ccccc2N)c2ccccc12` (centres undefined) registered an IC50 of 2.5 µg/mL (≈ 5.59 µM).

The next data set deals with HCT-116. Briefly: cells. The settings on record: Homo sapiens, HCT-116, 72 h.
Consider `CCOC(=O)C1=C(C)NC(=S)NC1c1cn(C(=O)CNc2ccccc2[N+](=O)[O-])c2ccccc12` (centres undefined), for which the IC50 was over 1000 µg/mL.

On to `CCOC(=O)C1=C(C)NC(=S)NC1c1cn(C(=O)CNc2cccc([N+](=O)[O-])c2)c2ccccc12` (centres undefined), for which the IC50 is 130 µg/mL (≈ 263 µM).

`CCOC(=O)C1=C(C)NC(=O)NC1c1cn(C(=O)CNc2ccccc2N)c2ccccc12` (centres undefined) displayed a half-maximal inhibitory concentration (IC50) of 300 µg/mL (≈ 670 µM).
